Measurements from US4107165A, “Tris[tetrahydroisoquinoline] compounds” (Endo Laboratories, priority 1976, dated 1978).

Experiments:
rats = test: toxicity, intraperitoneal administration to rats; assay type: in vivo; settings: at 0.01 mg./kg. and at 10 mg./kg.
Text: An outstanding feature of the compounds of this invention is their relative lack of toxicity. Although they are active at very low dose levels, it is possible to exceed minimum effective levels by wide margins without encountering serious adverse reactions. This permits the compounds to be used within wide limits without concern about undesirable side effects, as are so frequently encountered upon inadvertent overdosage of other substances of great potency.

whole blood clot = whole blood clot lysis method (fibrinolytic activity), blood from rats given compound intraperitoneally; assay type: in vivo; settings: Rattus norvegicus, ip, 4 h, intraperitoneal, blood diluted 1:10, clotted with thrombin, 37° C, four hours, read-out: ED50 (dose which causes lysis of 50% of the clot)
Description: Certain representative compounds within the scope of the present invention have been tested for fibrinolytic activity by the whole blood clot lysis method, as modified from the procedure of Billimoria et al.^1 In this method, blood from rats given a fibrinolytic compound intraperitoneally is taken and diluted 1:10. A standard amount is clotted with thrombin, incubated at 37° C for four hours, and the amount of clot that has lysed is determined. […] These ED50 values for the various compounds tested are set forth in the following table, each of the compounds being identified by name and by the number of the ensuing example in which its synthesis is described. […] ^1 Billimoria, […]., James, […]., Lancet II, 471 (1959)

[1] = tested on: ADP-induced platelet aggregation; test: inhibition of ADP-induced platelet aggregation in platelet rich plasma; assay type: cell-based; settings: 5 min; human platelet rich plasma, 37° C, five minutes incubation prior to ADP; read-out: ED50 (amount which reduces platelet aggregation by 50%)
Description: Another selection of representative compounds within the scope of the present invention, including some listed in the previous table, have been tested for their ability to inhibit platelet aggregation. Citrated whole blood from human volunteers, who had not taken any medicine for the previous week, was centrifuged to obtain platelet rich plasma. On addition of ADP (adenosine diphosphate) to this platelet rich plasma, incubated at 37° C with constant stirring, in an aggregometer, optical density changes can be observed which are caused by platelet aggregation. Thus, the extent of ADP-induced platelet aggregation is determined for each sample of blood used. Compounds to be tested were incubated for five minutes prior to the addition of ADP. The ED50 of a compound is that amount, in γ/ml, which reduces platelet aggregation by 50% under the above conditions.

## COc1cc2c(cc1OC)C(CCCCC(CCC1NCCc3cc(OC)c(OC)cc31)CCC1NCCc3cc(OC)c(OC)cc31)NCC2.Cl.Cl.Cl (stereo not drawn) [Example 1.1, 1,1'-{3-[2-(1,2,3,4-tetrahydro-6,7-dimethoxy-1-isoquinolinyl)ethyl]heptamethylene}bis[1,2,3,4-tetrahydro-6,7-dimethoxyisoquinoline] trihydrochloride]
rats
  toxicity: without producing toxicity
Whole blood clot
  ED50: 0.02 mg/kg
[1]
  IC50: 6 µg/mL
